Results as given in ChEMBL document CHEMBL1134823, “Human beta3 adrenergic receptor agonists containing cyanoguanidine and nitroethylenediamine moieties” (Bioorg Med Chem Lett, 2001).

Assays:
[1] = target: T1, Beta-2 adrenergic receptor (Homo sapiens, UniProt P07550); test: Binding affinity to the human beta-2 adrenergic receptor assayed using [125I]iodocyanopindolol as radioligand in CHO cells; assay type: cell-based
Target sequence in this assay (P07550 whole entry): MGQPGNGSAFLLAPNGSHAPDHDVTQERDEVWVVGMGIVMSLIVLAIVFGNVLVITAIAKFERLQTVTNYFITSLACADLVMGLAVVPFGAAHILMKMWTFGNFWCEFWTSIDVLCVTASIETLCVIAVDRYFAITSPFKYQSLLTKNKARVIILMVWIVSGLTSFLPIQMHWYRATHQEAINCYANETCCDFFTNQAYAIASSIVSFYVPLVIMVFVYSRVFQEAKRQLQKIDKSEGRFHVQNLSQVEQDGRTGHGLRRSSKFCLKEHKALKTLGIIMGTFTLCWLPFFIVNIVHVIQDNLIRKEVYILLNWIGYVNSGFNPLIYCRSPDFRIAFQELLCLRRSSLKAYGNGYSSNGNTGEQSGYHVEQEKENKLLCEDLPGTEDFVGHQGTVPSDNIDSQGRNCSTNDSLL

[2] = target: T2, Beta-3 adrenergic receptor (Homo sapiens, UniProt P13945); test: In vitro efficacy at human beta-3 adrenergic receptor.
Target sequence in this assay (P13945 whole entry): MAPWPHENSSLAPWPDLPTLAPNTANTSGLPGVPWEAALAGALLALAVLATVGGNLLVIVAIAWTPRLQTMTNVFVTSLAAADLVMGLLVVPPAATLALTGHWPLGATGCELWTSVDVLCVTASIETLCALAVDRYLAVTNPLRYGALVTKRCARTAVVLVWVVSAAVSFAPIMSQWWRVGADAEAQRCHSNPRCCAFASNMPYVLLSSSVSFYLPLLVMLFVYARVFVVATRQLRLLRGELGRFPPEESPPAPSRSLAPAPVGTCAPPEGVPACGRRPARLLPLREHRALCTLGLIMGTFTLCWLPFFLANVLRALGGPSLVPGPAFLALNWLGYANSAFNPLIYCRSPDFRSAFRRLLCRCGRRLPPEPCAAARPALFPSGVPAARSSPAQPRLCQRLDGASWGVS

[3] = target: T3, Beta-1 adrenergic receptor (Homo sapiens, UniProt P08588); test: Binding affinity for human Beta-1 adrenergic receptor using [125I]iodocyanopindolol as radioligand in CHO cells; assay type: cell-based
Target sequence in this assay (P08588 whole entry): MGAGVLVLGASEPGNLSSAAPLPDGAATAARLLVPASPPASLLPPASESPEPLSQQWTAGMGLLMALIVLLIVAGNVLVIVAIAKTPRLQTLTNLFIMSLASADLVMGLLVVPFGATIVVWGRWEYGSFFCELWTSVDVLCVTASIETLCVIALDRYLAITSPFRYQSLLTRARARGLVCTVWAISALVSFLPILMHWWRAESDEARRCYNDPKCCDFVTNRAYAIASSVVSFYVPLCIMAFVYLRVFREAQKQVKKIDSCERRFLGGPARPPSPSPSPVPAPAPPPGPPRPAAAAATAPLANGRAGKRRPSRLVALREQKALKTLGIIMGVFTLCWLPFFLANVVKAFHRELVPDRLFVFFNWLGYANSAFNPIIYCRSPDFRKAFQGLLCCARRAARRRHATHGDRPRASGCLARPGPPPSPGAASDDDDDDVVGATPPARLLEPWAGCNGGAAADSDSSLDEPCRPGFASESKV

[4] = target: T2, Beta-3 adrenergic receptor; test: In vitro maximum activation of adenylyl cyclase compared to isoproterenol.; assay type: functional
Target sequence in this assay (P13945 whole entry, looked up): as the sequence (P13945 whole entry) above

[5] = target: T3, Beta-1 adrenergic receptor; test: (§1) Percent of maximal stimulation was determined as adenylate cyclase activation using isoproterenol as standard at a concentration of 10000 nM; assay type: functional
Target sequence in this assay (P08588 whole entry, looked up): as the sequence (P08588 whole entry) above

[6] = target: T1, Beta-2 adrenergic receptor; test: as §1; assay type: functional
Target sequence in this assay (P07550 whole entry, looked up): as the sequence (P07550 whole entry) above

[7] = target: T3, Beta-1 adrenergic receptor; test: Percent of maximal stimulation was determined as adenylate cyclase activation using isoproterenol as standard; assay type: functional
Target sequence in this assay (P08588 whole entry, looked up): as the sequence (P08588 whole entry) above

[8] = target: T1, Beta-2 adrenergic receptor; test: Percent of maximal stimulation was determined as adenylate cyclase activation using isoproterenol as standard at a concentration of 10000 nM
Target sequence in this assay (P07550 whole entry, looked up): as the sequence (P07550 whole entry) above

[9] = target: T3, Beta-1 adrenergic receptor; test: Binding affinity towards human Beta-1 adrenergic receptor
Target sequence in this assay (P08588 whole entry): as the sequence (P08588 whole entry) above

[10] = target: T2, Beta-3 adrenergic receptor; test: Percent of maximal stimulation was determined as adenylate cyclase activation using isoproterenol as standard at a concentration of 1000 nM; assay type: functional
Target sequence in this assay (P13945 whole entry, looked up): as the sequence (P13945 whole entry) above

Row | SMILES | IC50 [1] [µM] | EC50 [2] [µM] | IC50 [3] [µM] | Activation [4] [%] | further results
1 | O=[N+]([O-])/C=C(\Nc1ccc(CCNC[C@H](O)c2cccnc2)cc1)Nc1cccc2ccccc12 | 0.37 | 0.14 | 1.8 | 79 | –
2 | N#CN/C(=N\c1cccc(Oc2ccccc2)c1)Nc1ccc(CCNC[C@H](O)c2cccnc2)cc1 | 0.04 | 0.026 | 0.24 | 70 | –
3 | N#CN/C(=N\c1ccc(CCNC[C@H](O)c2cccnc2)cc1)Nc1cccc(C(N)=O)c1 | 0.4 | 0.15 | 0.98 | 76 | –
4 | N#CN/C(=N\c1ccc2c(c1)CCN2c1nc(-c2ccc(OC(F)(F)F)cc2)cs1)Nc1ccc(CCNC[C@H](O)c2cccnc2)cc1 | – | – | – | 82 | Activation [7]: 73%; Activation [8]: 51%
5 | N#CN/C(=N\c1cccc(I)c1)Nc1ccc(CCNC[C@H](O)c2cccnc2)cc1 | – | – | – | 51 | –
6 | N#CN=C(Nc1ccc(CCNC[C@H](O)c2cccnc2)cc1)Nc1cccc(I)c1 | 0.067 | 0.059 | 0.23 | – | –
7 | NC(=O)c1cccc(N/C(=C/[N+](=O)[O-])Nc2ccc(CCNC[C@H](O)c3cccnc3)cc2)c1 | 1.2 | 0.01 | 0.79 | 101 | –
8 | N#CN=C(Nc1ccc(CCNC[C@H](O)c2cccnc2)cc1)Nc1ccc2ccccc2c1 | 0.05 | 0.13 | 0.74 | – | –
9 | O=[N+]([O-])/C=C(\Nc1ccc(CCNC[C@H](O)c2cccnc2)cc1)Nc1ccc2ccccc2c1 | 3.4 | 0.18 | 0.82 | 74 | –
10 | O=[N+]([O-])/C=C(\Nc1ccc(CCNC[C@H](O)c2cccnc2)cc1)Nc1cccc(Oc2ccccc2)c1 | 0.22 | 0.12 | 0.83 | 93 | –
11 | N#CN/C(=N\c1cc(Cl)cc(Cl)c1)Nc1ccc(CCNC[C@H](O)c2cccnc2)cc1 | 0.14 | 0.089 | 0.29 | 72 | –
12 | CCCCCCCCc1csc(N2CCc3cc(N/C(S)=N/c4ccc(CCNC[C@H](O)c5cccnc5)cc4)ccc32)n1 | 0.26 | 0.0053 | 0.11 | – | –
13 | N#CN/C(=N\c1ccc2c(c1)N(c1nc(-c3ccc(OC(F)(F)F)cc3)cs1)CC2)Nc1ccc(CCNC[C@H](O)c2cccnc2)cc1 | 0.71 | – | 0.62 | – | Activation [10]: 11%; Activation [5]: 27%; Activation [6]: 20%

Continued, in another order:

Row | IC50 [1] [µM] | EC50 [2] [µM] | IC50 [3] [µM] | Activation [4] [%] | SMILES | further results
14 | 0.066 | 0.059 | 0.074 | 38 | CCCCCCCCc1csc(N2CCc3ccc(N/C(=N/c4ccc(CCNC[C@H](O)c5cccnc5)cc4)NC#N)cc32)n1 | –
15 | 0.57 | 0.042 | 0.48 | – | N#CN=C(Nc1ccc(CCNC[C@H](O)c2cccnc2)cc1)Nc1cccc2ccccc12 | –
16 | 0.93 | 0.013 | 1.2 | 62 | CCCCCCCCc1csc(N2CCc3c(N/C(=N/c4ccc(CCNC[C@H](O)c5cccnc5)cc4)NC#N)cccc32)n1 | Activation [5]: 11%; Activation [6]: 25%
17 | > 10 | 0.057 | 8.4 | 72 | N#CN/C(=N\c1cccc2c1CCN2c1nc(-c2ccc(OC(F)(F)F)cc2)cs1)Nc1ccc(CCNC[C@H](O)c2cccnc2)cc1 | Activation [5]: 6%; Activation [6]: 20%
18 | 0.05 | 0.011 | 0.016 | – | CCCCCCCCc1csc(N2CCc3cc(NC(=NC#N)Nc4ccc(CCNC[C@H](O)c5cccnc5)cc4)ccc32)n1 | –
19 | 1.2 | 0.022 | 1.1 | 97 | O=[N+]([O-])/C=C(\Nc1ccc(CCNC[C@H](O)c2cccnc2)cc1)Nc1cccc(I)c1 | –
20 | 5.6 | 0.035 | 3.8 | 85 | O=[N+]([O-])/C=C(\Nc1ccc(CCNC[C@H](O)c2cccnc2)cc1)Nc1cc(Cl)cc(Cl)c1 | –
21 | 2.4 | 0.3 | 3 | 79 | O=[N+]([O-])/C=C(\Nc1ccc(CCNC[C@H](O)c2cccnc2)cc1)Nc1cccc(F)c1 | –
22 | 7.1 | 0.019 | 2.3 | – | N#CN=C(Nc1ccc2c(c1)CCN2c1nc(-c2ccc(OC(F)(F)F)cc2)cs1)Nc1ccc2cc(CCNC[C@H](O)c3cccnc3)ccc2c1 | –
23 | 1.3 | 0.00093 | 2.5 | – | CCCCCCCCc1csc(N2CCc3cc(S(=O)(=O)Nc4ccc(CCNC[C@H](O)c5cccnc5)cc4)ccc32)n1 | –
24 | – | – | – | 41 | N#CN/C(=N\c1ccc2ccccc2c1)Nc1ccc(CCNC[C@H](O)c2cccnc2)cc1 | –
25 | – | – | – | 64 | N#CN/C(=N\c1cccc2ccccc12)Nc1ccc(CCNC[C@H](O)c2cccnc2)cc1 | –
26 | 0.18 | 0.013 | 0.065 | – | N#CN=C(Nc1ccc(CCNC[C@H](O)c2cccnc2)cc1)Nc1ccc2c(c1)CCN2c1nc(-c2ccc(OC(F)(F)F)cc2)cs1 | EC50 [9]: 0.041 µM
27 | 0.2 | 0.1 | 0.59 | – | N#CN=C(Nc1ccc(CCNC[C@H](O)c2cccnc2)cc1)Nc1cccc(F)c1 | –
28 | – | – | – | 39 | CCCCCCCCc1csc(N2CCc3cc(N/C(=N/c4ccc(CCNC[C@H](O)c5cccnc5)cc4)NC#N)ccc32)n1 | –
29 | – | – | – | 69 | N#CN/C(=N\c1cccc(F)c1)Nc1ccc(CCNC[C@H](O)c2cccnc2)cc1 | –
30 | – | – | – | 62 | N#CN/C(=N\c1ccc2c(c1)CCN2c1nc(-c2ccc(OC(F)(F)F)cc2)cs1)Nc1ccc2cc(CCNC[C@H](O)c3cccnc3)ccc2c1 | Activation [5]: 2%; Activation [6]: 11%
31 | 0.17 | 0.1 | 0.73 | 38 | N#CN/C(=N\c1ccc(I)cc1)Nc1ccc(CCNC[C@H](O)c2cccnc2)cc1 | –
